pEC50: −log10 of the molar value. Read-outs that look alike come from different tables or passages of the source. *1 amine or outer side, *2 acyl side, *3 side chain or, on linkers, in order; H or OH if unused. Where a SMILES comes first, the peptide text is derived from it. Side-chain parts run from the residue outwards. [ ]: non-standard residue; d: D form. The star is where a group is joined. γGlu = O=C(O)[C@H](CCC(=O)[*:2])N[*:1]; αMeF = C[C@](N)(Cc1ccccc1)C(=O)O; αMeK = C[C@](N)(CCCCN)C(=O)O; Lauroyl = CCCCCCCCCCCC(=O)*; αMeS = C[C@](N)(CO)C(=O)O; AEEA = NCCOCCOCC(=O)O; Aib = CC(C)(N)C(=O)O
What was measured:
[1] = Pharmacokinetics of oral tablets in dogs; format: in vivo; conditions: oral tablets 20 mg/dog, semaglutide: 300 mg SNAC, uncoated, MEDI7219: 100 mg NaCDC and 200 mg PG, pH 5.5 enteric, n = 9
[2] = test system: diet-induced obese (DIO) mouse model; assay: Body weight, blood glucose and plasma insulin in diet-induced obese mouse model; format: in vivo; conditions: DIO mice
Procedure: Male 20-week-old C57Bl/6 J mice were single-housed for approximately 14 weeks with ad libitum access to water and 60% high-fat diet (D12492, Research Diets). Mice were randomized into groups of 12 mice per group on baseline body weight, 6 h fasting glucose and 6 h fasting insulin. Over 21 days, mice received daily subcutaneous injections of 10 nmol/kg of test peptides or placebo (50 mM Tris–HCl, 150 mM mannitol, 0.02% polysorbate 80; pH 8.0). Body weight was measured daily and fasting glucose and insulin levels were measured on day 14 following a 6-h fast. Blood was collected via tail-snip and glucose was measured with an Ascensia Breeze 2 glucometer (Bayer, Mishawaka, IN, USA). Insulin was measured in plasma using a Meso Scale rat/insulin kit (Meso Scale Discovery, Rockville, MD, USA).

[3] = Fasted-state simulated intestinal fluid/pancreatin assay; format: in vitro ADME; conditions: FaSSIF with USP pancreatin; 2 h incubation in FaSSIF/USP pancreatin, pre-warmed, agitation; analytical RP-HPLC area under the curve; read-out: peptide remaining intact after incubation in FaSSIF/pancreatin
Procedure: Fresh FaSSIF and USP Pancreatin (FaSSIF/p; Sigma-Aldrich) was prepared according to Galia et al[55]. and used immediately. Peptides were dissolved in pre-warmed FaSSIF before addition of pre-warmed FaSSIF/pancreatin with agitation. Samples were analyzed by analytical RP-HPLC to determine remaining intact peptide by area under the curve.

db/db mice = assay: Dose-response study in diabetic db/db mouse model; format: in vivo; conditions: once-daily subcutaneous for 28 days, n = 9 per group
Procedure: Male 7-week-old db/db mice (Charles River, Bristol, UK) were group-housed with ad libitum access to standard chow and water. Mice were randomized to groups of nine mice per group on baseline body weight, HbA1C and 4-h fasting glucose (assessed in tail bleed samples using a Cobas c-111 analyzer [Roche Diagnostics, Indianapolis, IN, USA] and Nova StatStrip Xpress glucometer [DSI, St. Paul, MN, USA]). Insulin was measured in plasma from tail bleeds using a Meso Scale kit. Over 28 days, mice received daily subcutaneous doses of test peptides or placebo (50 mM Tris–HCl, 150 mM mannitol, 0.02% polysorbate 80; pH 8.0).

human GLP-1R = target: T1, human GLP-1R (Homo sapiens, UniProt P43220); assay: cAMP accumulation assay in CHO cells stably expressing human GLP-1R; format: cell-based; conditions: geometric mean (SEM); for pEC50: 30 min at room temperature, HTRF cAMP, n ≥ 3 independent experiments
T1 construct: expressed in transfected cells
Procedure: All reagents for cAMP assays were obtained from Sigma-Aldrich unless otherwise specified.
Cells were suspended in assay buffer and combined with serially diluted peptides at room temperature for 30 min. cAMP levels were measured using a cAMP dynamic 2 HTRF kit (Cisbio, Codolet, France), following the manufacturer’s two-step protocol, on an EnVision plate reader (PerkinElmer, Waltham, MA, USA). […] The transformed data were analyzed by four-parameter logistic fit to determine EC50 values using GraphPad Prism 6 (GraphPad Software, San Diego, CA, USA).

[4] = 10 nmol/kg daily subcutaneous, day 14, n = 12 per group

T1 sequence (P43220 24-463): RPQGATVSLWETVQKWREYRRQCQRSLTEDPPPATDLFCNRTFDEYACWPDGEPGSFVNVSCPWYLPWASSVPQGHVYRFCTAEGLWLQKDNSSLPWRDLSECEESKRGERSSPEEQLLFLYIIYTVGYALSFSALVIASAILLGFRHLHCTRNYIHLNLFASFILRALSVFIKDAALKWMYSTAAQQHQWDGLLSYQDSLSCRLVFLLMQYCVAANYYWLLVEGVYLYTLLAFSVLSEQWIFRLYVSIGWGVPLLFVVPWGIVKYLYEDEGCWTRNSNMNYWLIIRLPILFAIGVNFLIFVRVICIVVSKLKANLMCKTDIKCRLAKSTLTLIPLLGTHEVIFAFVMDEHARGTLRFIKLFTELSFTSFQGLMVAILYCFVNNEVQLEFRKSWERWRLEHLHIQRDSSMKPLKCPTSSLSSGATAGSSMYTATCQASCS

AUC0-inf ([1]; arithmetic mean (% CV)): 13,500 (54.2) ng·h/mL
CL/F (oral clearance) ([1]; arithmetic mean (% CV)): 1,880 (52.1) mL/h
Cmax ([1]; arithmetic mean (% CV)): 1,450 (63.2) ng/mL
F (bioavailability, systemic fraction) ([1]; arithmetic mean (% CV)): 5.92 (54.2) %
Tmax ([1]; median (min–max)): 1.5 (1.0–4.5) hours
t½ ([1]; plasma, LC/MS, arithmetic mean (% CV)): 9.8 (13.2) hours
remaining at 2 h [3]: > 60%
CHO-hGLP-1R cAMP 0.1% BSA Effect at max. concentration (human GLP-1R; 0.1% BSA, % activation, 80 nM native GLP-1 defines maximum effect): 101.7 (0.5) %
pEC50 (human GLP-1R; 4.4% HSA, read-out: CHO-hGLP-1R cAMP 4.4% HSA EC50): 9.40
CHO-hGLP-1R cAMP 4.4% HSA Effect at max. concentration (human GLP-1R; 4.4% HSA, % activation, 80 nM native GLP-1 defines maximum effect): 94.3 (1.8) %
pEC50 (human GLP-1R; CHO-hGLP-1R cAMP 0.1% BSA EC50, 0.1% BSA): 11.47
Compound: CCCCCCCCCCCC(=O)N[C@@H](CCC(=O)NCCOCCOCC(=O)NCCOCCOCC(=O)NCCCC[C@H](NC(=O)[C@H](C)NC(=O)[C@@H](NC(=O)[C@](C)(Cc1ccccc1)NC(=O)[C@H](CCC(=O)O)NC(=O)[C@](C)(CCCCN)NC(=O)[C@H](C)NC(=O)[C@H](C)NC(=O)[C@H](CCC(=O)O)NC(=O)CNC(=O)[C@H](CCC(=O)O)NC(=O)[C@H](CC(C)C)NC(=O)[C@H](CCCCNC(=O)COCCOCCNC(=O)COCCOCCNC(=O)CC[C@H](NC(=O)CCCCCCCCCCC)C(=O)O)NC(=O)[C@H](CO)NC(=O)[C@](C)(CO)NC(=O)[C@@H](NC(=O)[C@H](CC(=O)O)NC(=O)[C@H](CO)NC(=O)[C@@H](NC(=O)[C@](C)(Cc1ccccc1)NC(=O)[C@H](CO)NC(=O)CNC(=O)[C@H](CCC(=O)O)NC(=O)C(C)(C)NC(=O)[C@@H](N)Cc1c[nH]cn1)[C@@H](C)O)C(C)C)[C@@H](C)CC)C(=O)N[C@H](C(=O)N[C@H](C(=O)N[C@@H](CCC(=O)O)C(=O)NCC(=O)NCC(N)=O)C(C)C)C(C)C)C(=O)O [MEDI7219] (H-H[Aib]EGS[αMeF]TSDV[αMeS]SK([AEEA-AEEA-γGlu-Lauroyl])LEGEAA[αMeK]E[αMeF]IAK([AEEA-AEEA-γGlu-Lauroyl])VVEGG-NH2)
Body weight change (%) ([2]; 10 nmol/kg daily subcutaneous over 21 days, n = 12 per group, Fig. 3b): −17.0%
body weight reduction after 21 days ([2]; 10 nmol/kg daily subcutaneous, 21 days, n = 12 per group): 17.0%
6-h fasting blood glucose – day 14 [2, 4]: 133.0 mg/dL
6-h fasting plasma insulin – day 14 [2, 4]: 0.74 ng/mL
HbA1C levels (db/db mice; P < 0.001 versus placebo for doses 1–30 nmol/kg): dose-dependently reduced HbA1C levels
blood glucose levels over 28 days (db/db mice; significantly lower than placebo at 3–30 nmol/kg (P < 0.001)): dose-dependently reduced glucose levels

Source: article PMC8602401 (Scientific Reports, 2021)
